Measured values published in patent US20240148821A1, “PHARMACEUTICAL USE OF CYCLIC PEPTIDE COMPOUND” (CHUGAI SEIYAKU KABUSHIKI KAISHA, priority 2021, published 2024).
Bridge positions count the residues as written; N and C are the ends. Square brackets hold non-standard residues; d marks the D form. Peptide text beside a SMILES is read from it. * marks the point of attachment. hPhe(3-Cl-4-CF3) = N[C@@H](CCc1ccc(C(F)(F)F)c(Cl)c1)C(=O)O; hPhe(3-F,4-CF3) = N[C@@H](CCc1ccc(C(F)(F)F)c(F)c1)C(=O)O; NMePhe(4-CF3) = CN[C@@H](Cc1ccc(C(F)(F)F)cc1)C(=O)O; NMePhe(4-Cl) = CN[C@@H](Cc1ccc(Cl)cc1)C(=O)O; NMePhe(4-Me) = CN[C@@H](Cc1ccc(C)cc1)C(=O)O; NMeNle(6-CHF2) = CN[C@@H](CCCCC(F)F)C(=O)O; Leu(4,5-dehydro) = C=C(C)C[C@H](N)C(=O)O; NMeAla(cPent) = CN[C@@H](CC1CCCC1)C(=O)O; NMeGly(cPent) = CN[C@H](C(=O)O)C1CCCC1; Phe(3-I) = N[C@@H](Cc1cccc(I)c1)C(=O)O; NMeCha = CN[C@@H](CC1CCCCC1)C(=O)O; NMeAllylGly = C=CC[C@H](NC)C(=O)O; NMeChg = CN[C@H](C(=O)O)C1CCCCC1; NMeD = CN[C@@H](CC(=O)O)C(=O)O; CH2CONHtBu = CC(C)(C)NC(=O)C*; NMeL = CN[C@@H](CC(C)C)C(=O)O; Chg = N[C@H](C(=O)O)C1CCCCC1; dNMeAbu = CC[C@@H](NC)C(=O)O; hLeu = CC(C)CC[C@H](N)C(=O)O; NMeV = CN[C@H](C(=O)O)C(C)C; d(β3hA) = C[C@@H](N)CC(=O)O; NMeAbu = CC[C@H](NC)C(=O)O; NMeS = CN[C@@H](CO)C(=O)O; dNMeS = CN[C@H](CO)C(=O)O; NMeA = CN[C@@H](C)C(=O)O; NMeAib = CNC(C)(C)C(=O)O; Nle = CCCC[C@H](N)C(=O)O; Piperidide = C1CCN(*)CC1; Pra = C#CC[C@H](N)C(=O)O; Pyrrolidide = C1CCN(*)C1; dNMeA = CN[C@H](C)C(=O)O; Ac5c = NC1(C(=O)O)CCCC1; Aze = O=C(O)[C@@H]1CCN1; Abu = CC[C@H](N)C(=O)O; Aib = CC(C)(N)C(=O)O; Isopentyl = CC(C)CC*; Sar = CNCC(=O)O

system: Human pancreatic cancer cell line AsPC-1 (G12D mutation Kras); experiment: AsPC-1 cell growth inhibition (AsPC-1 CGI); assay type: cell-based; settings: read-out: AsPC-1 cell growth inhibition, 50% growth inhibitory concentration (IC50 value); 96 hours, CellTiter-Glo, values classified in ranges
Procedure: Test compounds were serially dilated with dimethyl sulfoxide, and 200 nL was then dispensed to a U-bottom 96-well plate using Labcyte Echo. […] The cell suspension was dispensed to a. plate containing a test compound at 100 μL per well and incubated at 37° C. in a 5% carbon dioxide gas incubator. 96 hours later, 80 μL of CellTiter-Glo (Promega) was added to each well and fluorescence was measured.

Row | Structure (SMILES) | IC50
1 | C#CC[C@@H]1NC(=O)[C@H](Cc2cccc(I)c2)NC(=O)CN(C)C(=O)[C@H](Cc2ccc(Cl)cc2)N(C)C(=O)[C@@H]2CCN2C(=O)[C@H](C)N(C)C(=O)[C@H]([C@@H](C)CC)NC(=O)[C@H](CC(C)C)N(C)C(=O)C[C@@H](C(=O)N2CCCCC2)N(C)C(=O)[C@H](CC(C)C)NC(=O)C(C)(C)N(C)C1=O [Compound 1428] ([NMeL]I[NMeA][Aze][NMePhe(4-Cl)][Sar][Phe(3-I)][Pra][NMeAib]L[NMeD]-Piperidide; lactam N-11) | > 500 nM
2 | C=C(C)C[C@@H]1NC(=O)[C@H](Cc2cccc(I)c2)NC(=O)CN(C)C(=O)[C@H](Cc2ccc(Cl)cc2)N(C)C(=O)[C@@H]2CCN2C(=O)[C@H](C)N(C)C(=O)[C@H]([C@@H](C)CC)NC(=O)[C@H](CC(C)C)N(C)C(=O)C[C@@H](C(=O)N2CCCCC2)N(C)C(=O)[C@H](CC(C)C)NC(=O)C(C)(C)N(C)C1=O [Compound 1429] ([NMeL]I[NMeA][Aze][NMePhe(4-Cl)][Sar][Phe(3-I)][Leu(4,5-dehydro)][NMeAib]L[NMeD]-Piperidide; lactam N-11) | > 500 nM
3 | CCCC[C@@H]1NC(=O)[C@H](Cc2cccc(I)c2)NC(=O)CN(C)C(=O)[C@H](CC2CCCC2)N(C)C(=O)[C@@H]2CCN2C(=O)[C@H](C)N(C)C(=O)[C@H]([C@@H](C)CC)NC(=O)[C@H](CC(C)C)N(C)C(=O)C[C@@H](C(=O)N2CCCCC2)N(C)C(=O)[C@H](CC(C)C)NC(=O)C(C)(C)N(C)C1=O [Compound 1432] ([NMeL]I[NMeA][Aze][NMeAla(cPent)][Sar][Phe(3-I)][Nle][NMeAib]L[NMeD]-Piperidide; lactam N-11) | > 500 nM
4 | CCCC[C@@H]1NC(=O)[C@H](Cc2cccc(I)c2)NC(=O)CN(C)C(=O)[C@H](Cc2ccc(C(F)(F)F)cc2)N(C)C(=O)CN(C)C(=O)CN(C)C(=O)[C@H]([C@@H](C)CC)NC(=O)[C@H](CC(C)C)N(C)C(=O)C[C@@H](C(=O)N2CCCCC2)N(C)C(=O)[C@H](CCC(C)C)NC(=O)C(C)(C)N(C)C1=O [Compound 1433] ([NMeL]I[Sar][Sar][NMePhe(4-CF3)][Sar][Phe(3-I)][Nle][NMeAib][hLeu][NMeD]-Piperidide; lactam N-11) | > 500 nM
5 | CC[C@@H]1C(=O)NC2(CCCC2)C(=O)N(C)[C@@H](C(C)C)C(=O)N(C)[C@H](C(=O)N2CCCCC2)CC(=O)N(C)[C@@H](CC(C)C)C(=O)N[C@@H]([C@@H](C)CC)C(=O)N(C)[C@@H](C)C(=O)N2CC[C@H]2C(=O)N(C)[C@@H](CC2CCCCC2)C(=O)N(C)CC(=O)N[C@@H](CCc2ccc(C(F)(F)F)c(Cl)c2)C(=O)N1C [Compound 1438] ([NMeL]I[NMeA][Aze][NMeCha][Sar][hPhe(3-Cl-4-CF3)][dNMeAbu][Ac5c][NMeV][NMeD]-Piperidide; lactam N-11) | > 500 nM
6 | CC[C@H](C)[C@@H]1NC(=O)[C@H](CC(C)C)N(C)C(=O)C[C@@H](C(=O)N2CCCCC2)N(C)C(=O)[C@H](C2CCCC2)N(C)C(=O)C2(CCCC2)NC(=O)[C@@H](COCCC(C)C)N(C)C(=O)[C@H](CCc2ccc(C(F)(F)F)c(Cl)c2)NC(=O)CN(C)C(=O)[C@H](CC2CCCCC2)N(C)C(=O)CN(C)C(=O)CN(C)C1=O [Compound 1440] ([NMeL]I[Sar][Sar][NMeCha][Sar][hPhe(3-Cl-4-CF3)][dNMeS](Isopentyl)[Ac5c][NMeGly(cPent)][NMeD]-Piperidide; lactam N-11) | > 500 nM
7 | CC[C@@H]1C(=O)NC2(CCCC2)C(=O)N(C)[C@@H](C2CCCC2)C(=O)N(C)[C@H](C(=O)N2CCCCC2)CC(=O)N(C)[C@@H](CC(C)C)C(=O)N[C@@H]([C@@H](C)CC)C(=O)N(C)[C@@H](C)C(=O)N2CC[C@H]2C(=O)N(C)[C@@H](CC2CCCCC2)C(=O)N(C)CC(=O)N[C@@H](CCc2ccc(C(F)(F)F)c(Cl)c2)C(=O)N1C [Compound 1441] ([NMeL]I[NMeA][Aze][NMeCha][Sar][hPhe(3-Cl-4-CF3)][dNMeAbu][Ac5c][NMeGly(cPent)][NMeD]-Piperidide; lactam N-11) | > 500 nM
8 | CC[C@H](C)[C@@H]1NC(=O)[C@H](CC(C)C)N(C)C(=O)C[C@@H](C(=O)N2CCCCC2)N(C)C(=O)[C@H](C2CCCC2)N(C)C(=O)C2(CCCC2)NC(=O)[C@@H](COCCC(C)C)N(C)C(=O)[C@H](CCc2ccc(C(F)(F)F)c(Cl)c2)NC(=O)CN(C)C(=O)[C@H](CC2CCCCC2)N(C)C(=O)[C@@H]2CCN2C(=O)[C@H](C)N(C)C1=O [Compound 1443] ([NMeL]I[NMeA][Aze][NMeCha][Sar][hPhe(3-Cl-4-CF3)][dNMeS](Isopentyl)[Ac5c][NMeGly(cPent)][NMeD]-Piperidide; lactam N-11) | > 500 nM
9 | CC[C@H](C)[C@@H]1NC(=O)[C@H](CC(C)C)N(C)C(=O)C[C@@H](C(=O)N2CCCCC2)N(C)C(=O)[C@H](C(C)C)N(C)C(=O)C2(CCCC2)NC(=O)[C@@H](CO)N(C)C(=O)[C@H](CCc2ccc(C(F)(F)F)c(Cl)c2)NC(=O)CN(C)C(=O)[C@H](CC2CCCCC2)N(C)C(=O)[C@@H]2CCN2C(=O)[C@H](C)N(C)C1=O [Compound 1444] ([NMeL]I[NMeA][Aze][NMeCha][Sar][hPhe(3-Cl-4-CF3)][dNMeS][Ac5c][NMeV][NMeD]-Piperidide; lactam N-11) | > 500 nM
10 | C=CC[C@H]1C(=O)NC2(CCCC2)C(=O)N(C)[C@@H](C2CCCCC2)C(=O)N(C)[C@H](C(=O)N2CCCCC2)CC(=O)N(C)[C@@H](CC(C)C)C(=O)N[C@@H]([C@@H](C)CC)C(=O)N(C)CC(=O)N(C)CC(=O)N(C)[C@@H](CC2CCCCC2)C(=O)N(C)CC(=O)N[C@@H](CCc2ccc(C(F)(F)F)c(Cl)c2)C(=O)N1C [Compound 1449] ([NMeL]I[Sar][Sar][NMeCha][Sar][hPhe(3-Cl-4-CF3)][NMeAllylGly][Ac5c][NMeChg][NMeD]-Piperidide; lactam N-11 (inferred); C-terminus assumed) | > 500 nM
11 | CC(C)C[C@H]1C(=O)N[C@@H](C(C)C)C(=O)N(C)CC(=O)N(C)CC(=O)N(C)[C@@H](CC2CCCCC2)C(=O)N(C)CC(=O)N[C@@H](CCc2ccc(C(F)(F)F)c(Cl)c2)C(=O)N2CCC[C@H]2C(=O)NC2(CCCC2)C(=O)N(C)[C@@H](CC(C)C)C(=O)N[C@H](C)CC(=O)N1C [Compound 1452] (cyclo([Ac5c][NMeL][d(β3hA)][NMeL]V[Sar][Sar][NMeCha][Sar][hPhe(3-Cl-4-CF3)]P)) | > 500 nM
12 | CC(C)C[C@H]1C(=O)N[C@@H](C2CCCCC2)C(=O)N(C)CC(=O)N(C)CC(=O)N(C)[C@@H](CCCCC(F)F)C(=O)N(C)CC(=O)N[C@@H](CCc2ccc(C(F)(F)F)c(F)c2)C(=O)N(C)[C@@H](CC(C)C)C(=O)NC(C)(C)C(=O)N(C)[C@@H](CC(C)C)C(=O)N[C@H](C(=O)N2CCCC2)CC(=O)N1C [Compound 1453] ([NMeL][Chg][Sar][Sar][NMeNle(6-CHF2)][Sar][hPhe(3-F,4-CF3)][NMeL][Aib][NMeL]D-Pyrrolidide; lactam N-11) | > 500 nM
13 | CC[C@H](C)[C@@H]1NC(=O)[C@H](CC(C)C)N(C)C(=O)C[C@@H](C(=O)N2CCCC2)NC(=O)[C@H](CC(C)C)N(C)C(=O)C(C)(C)NC(=O)[C@H](CC(C)C)N(C)C(=O)[C@H](CCc2ccc(C(F)(F)F)c(F)c2)NC(=O)CN(C)C(=O)[C@H](CCCCC(F)F)N(C)C(=O)CN(C)C(=O)CN(C)C1=O [Compound 1455] ([NMeL]I[Sar][Sar][NMeNle(6-CHF2)][Sar][hPhe(3-F,4-CF3)][NMeL][Aib][NMeL]D-Pyrrolidide; lactam N-11) | > 500 nM
14 | CC[C@H](C)[C@@H]1NC(=O)[C@H](CC(C)C)N(C)C(=O)C[C@@H](C(=O)N2CCCCC2)N(C)C(=O)[C@H](CC(C)C)N(C)C(=O)C(C)(C)NC(=O)[C@H](CC(C)C)N(C)C(=O)[C@H](CCc2ccc(C(F)(F)F)c(F)c2)NC(=O)CN(C)C(=O)[C@H](CCCCC(F)F)N(C)C(=O)CN(C)C(=O)CN(C)C1=O [Compound 1456] ([NMeL]I[Sar][Sar][NMeNle(6-CHF2)][Sar][hPhe(3-F,4-CF3)][NMeL][Aib][NMeL][NMeD]-Piperidide; lactam N-11) | > 500 nM
15 | CC[C@@H]1NC(=O)[C@H]([C@@H](C)CC)NC(=O)[C@H](CC(C)C)N(C)C(=O)C[C@@H](C)NC(=O)[C@H](C(C)C)N(C)C(=O)C2(CCCC2)NC(=O)[C@@H]2CCCN2C(=O)[C@H](CCc2ccc(C(F)(F)F)c(Cl)c2)NC(=O)CN(C)C(=O)[C@H](CC2CCCCC2)N(C)C(=O)CN(C)C1=O [Compound 1459] (cyclo([Abu][Sar][NMeCha][Sar][hPhe(3-Cl-4-CF3)]P[Ac5c][NMeV][d(β3hA)][NMeL]I)) | > 500 nM
16 | CC[C@H](C)[C@@H]1NC(=O)[C@H](C)N(C)C(=O)C[C@@H](C)NC(=O)[C@H](C2CCCC2)N(C)C(=O)C2(CCCC2)NC(=O)[C@@H]2CCCN2C(=O)[C@H](CCc2ccc(C(F)(F)F)c(Cl)c2)NC(=O)[C@@H](C)N(C)C(=O)[C@H](Cc2ccc(C)cc2)N(C)C(=O)CN(C)C(=O)CN(C)C1=O [Compound 1465] (cyclo([Ac5c][NMeGly(cPent)][d(β3hA)][NMeA]I[Sar][Sar][NMePhe(4-Me)][dNMeA][hPhe(3-Cl-4-CF3)]P)) | > 500 nM
17 | CC[C@H](C)[C@@H]1NC(=O)[C@H](CC(C)C)N(C)C(=O)C[C@@H](C)NC(=O)[C@H](CC(C)C)N(C)C(=O)C(C)(C)NC(=O)[C@H](COCC(=O)NC(C)(C)C)N(C)C(=O)[C@H](CCc2ccc(C(F)(F)F)c(Cl)c2)NC(=O)CN(C)C(=O)[C@H](COCCC(C)C)N(C)C(=O)CN(C)C(=O)CN(C)C1=O [Compound 1467] (cyclo([Aib][NMeL][d(β3hA)][NMeL]I[Sar][Sar][NMeS](Isopentyl)[Sar][hPhe(3-Cl-4-CF3)][NMeS](CH2CONHtBu))) | > 500 nM
18 | CC[C@H](C)[C@@H]1NC(=O)[C@H](CC(C)C)N(C)C(=O)C[C@@H](C)NC(=O)[C@H](CC)N(C)C(=O)C2(CCCC2)NC(=O)[C@@H]2CCCN2C(=O)[C@H](CCc2ccc(C(F)(F)F)c(F)c2)NC(=O)CN(C)C(=O)[C@H](CC2CCCCC2)N(C)C(=O)CN(C)C(=O)CN(C)C1=O [Compound 1469] (cyclo([Ac5c][NMeAbu][d(β3hA)][NMeL]I[Sar][Sar][NMeCha][Sar][hPhe(3-F,4-CF3)]P)) | > 500 nM
